We go through one molecule from patent US10130652B2, “Anti-inflammatory compositions” (INDENA S.P.A., priority 2010, dated 2018).

This test concerns myeloperoxidase (MPO). Briefly: Myeloperoxidase (MPO) expression/activity inhibition in LPS-stimulated skin PMNs (ELISA on cell supernatants). The format is cell-based. The conditions noted are these: human skin PMNs stimulated with LPS, positive reference at 0.1%, 6 hours of incubation. Here is the method:
Tamarind Seed Polysaccharide (either alone and in combination with standardized botanical extracts) was tested for its ability to reduce inflammation cellular response through the measurement of the inhibition of myeloperoxidase (MPO) activity in polymorphonuclear neutrophils (PMNs). Inflammation, in particular during the acute phase, causes the migration of PMNs towards the inflammation site by chemotaxis. It is also known that the degree of MPO activity is directly proportional to the number of PMNs present in the tissue and to the inflammatory response. Thus, a reduction of the number of PMNs corresponds to a reduction in the activity of myeloperoxidase and it can he then concluded that the cellular response to inflammation is reduced accordingly.
Human skin PMNs were cultivated in bacteriological Petri dishes with 100 mm diameter. Cell culture medium was RPMI-1640 supplemented with Penicillin (100 U/ml), Streptomycin (100 mcg/ml), L-glutamin (2 mM) and 10% heat-inactivated and filtered FCS (Foetal Calf Serum). PMNs were then stimulated with the addition of LPS (lipopolysaccharides) to the cultivation media. […]
After 6 hours of incubation, the overall inhibition of myeloperoxidase (MPO) activity was quantified in the PMNs cell supernatants using an enzyme immunoassay kit (ELISA).
For orientation: In an ELISA, binding on a coated surface is turned into a signal by an enzyme label.

Marks after values point to notes of the source that are not given here.

As to `C[C@@H]1C[C@H]2[C@@H]3CCC4=CC(=O)C=C[C@]4(C)[C@@]3(F)[C@@H](O)C[C@]2(C)[C@@]1(O)C(=O)CO` [Dexamethasone], the “MPO Inhibition of Expression (Δ % vs. basal)” value is recorded as −30%*.
